From US20230203098A1, “HUMAN TRANSFERRIN RECEPTOR BINDING PEPTIDE” (priority 2020, published 2023)
Like-named read-outs stand apart in the source and are kept apart here. Values belong to the molecule of their own block, whether it stands above or below them. Where a SMILES comes first, the peptide text is derived from it. Bridges are numbered along the chain shown (N, C = ends). [ ]: non-standard residue; d: D form. PEG12 = NCCOCCOCCOCCOCCOCCOCCOCCOCCOCCOCCOCCOCCC(=O)O; Phe(3-COOH) = N[C@@H](Cc1cccc(C(=O)O)c1)C(=O)O; NMePhe(3-Cl) = CN[C@@H](Cc1cccc(Cl)c1)C(=O)O; NMeW = CN[C@@H](Cc1c[nH]c2ccccc12)C(=O)O; Phe(3-OMe) = COc1cccc(C[C@H](N)C(=O)O)c1; NMeY = CN[C@@H](Cc1ccc(O)cc1)C(=O)O; NMeF = CN[C@@H](Cc1ccccc1)C(=O)O; PEG4 = NCCOCCOCCOCCOCCC(=O)O; hLys = NCCCCC[C@H](N)C(=O)O

Target: transferrin receptor (hTfR) (Homo sapiens, UniProt P02786)
Sequence (P02786 whole entry): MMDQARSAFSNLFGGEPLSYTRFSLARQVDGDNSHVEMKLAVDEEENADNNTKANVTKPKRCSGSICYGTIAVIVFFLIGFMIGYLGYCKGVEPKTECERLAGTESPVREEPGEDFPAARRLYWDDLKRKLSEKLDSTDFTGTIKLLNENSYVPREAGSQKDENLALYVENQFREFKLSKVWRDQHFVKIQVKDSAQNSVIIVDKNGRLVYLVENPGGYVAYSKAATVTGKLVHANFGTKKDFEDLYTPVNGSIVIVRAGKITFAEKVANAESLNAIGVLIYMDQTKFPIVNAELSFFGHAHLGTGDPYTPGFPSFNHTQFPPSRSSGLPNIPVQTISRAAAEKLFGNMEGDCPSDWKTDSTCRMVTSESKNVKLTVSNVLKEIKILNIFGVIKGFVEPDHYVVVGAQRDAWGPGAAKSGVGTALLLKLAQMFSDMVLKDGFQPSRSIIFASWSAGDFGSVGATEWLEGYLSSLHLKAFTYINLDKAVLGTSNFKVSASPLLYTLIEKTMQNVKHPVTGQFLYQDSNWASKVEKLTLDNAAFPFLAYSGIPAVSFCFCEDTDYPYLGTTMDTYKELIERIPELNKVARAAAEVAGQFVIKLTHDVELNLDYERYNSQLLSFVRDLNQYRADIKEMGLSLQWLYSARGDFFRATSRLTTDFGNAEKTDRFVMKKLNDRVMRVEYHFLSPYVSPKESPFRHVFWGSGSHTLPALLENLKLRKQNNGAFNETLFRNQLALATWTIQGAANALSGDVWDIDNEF
Test: Intermolecular interaction evaluation test between transferrin receptor (hTfR) and peptide by surface plasmon resonance (SPR)
Format: binding
Procedure: For each of the various synthesized peptides, the intermolecular interaction of the peptide with the transferrin receptor (hTfR) was tested by surface plasmon resonance (SPR) according to the following method. The specific test method is as follows.
An NTA sensor chip (Global Life Sciences Technologies Japan) was inserted in a Biacore T200 (Global Life Sciences Technologies Japan) and a prime operation was performed 3 times with a running buffer: 10 mM HEPES pH 8.0 (Nacalai Tesque), 150 mM NaCl (Nacalai Tesque), 0.05% Tween 20 (Nacalai Tesque), 0.1% BSA (Sigma-Aldrich), 1.0% DMSO (FUJIFILM Wako Pure Chemical) to create an Equilibration state at a flow rate of 30 µL/min. After reacting with 350 mM EDTA solution for 60 seconds at a flow rate of 10 µL/min then reacting with 0.5 mM NiCl2 solution (Kishida Chemical) for 60 seconds at a flow rate of 10 µL/min, the NTA sensor chip was washed with 3 mM EDTA solution (Nacalai Tesque) for 60 seconds at a flow rate of 10 µL/min. After mixing 50 µL each of 60 mM EDC solution (Global Life Sciences Technologies Japan) and 650 mM NHS solution (Global Life Sciences Technologies Japan), the mixture was reacted for 420 seconds at a flow rate of 10 µL/min. By diluting with the running buffer, 150 µL of 3.2 µM hTfR solution was prepared and used for reaction for 600 seconds at a flow rate of 10 µL/min, thereby immobilizing hTfR on the NTA sensor chip. After immobilization, capping was performed by reacting with 1.0 M ethanolamine aqueous solution (Global Life Sciences Technologies Japan) for 420 seconds at a flow rate of 10 µL/min. A peptide dissolution liquid prepared to 10 mM in the DMSO solution was diluted with the running buffer to a final concentration of 10 µM so as to become the peptide dissolution liquid, then peptide solutions of 100 nM, 50 nM, 25 nM, 10 nM and 5 nM were prepared. Kinetics of the peptide to hTfR was acquired by SPR measurement using the above-mentioned samples. Single-cycle kinetics was used as a kinetic evaluation model and curve fitting was performed using Biacore T200 Evaluation Software Version 3.0 (Global Life Sciences Technologies Japan). An obtained sensorgram was subjected to curve fitting using the least-squares method, and the binding of the peptide to hTfR was evaluated by obtaining KD values. […] A chemical structure of hTfR No. 894 is as follows.
The variant peptides were synthesized according to Example 1 unless otherwise stated in Example 9 or 10. The linker-added peptides were synthesized according to Example 1, except that Fmoc-NH-SAL-PEG resin (Watanabe Chemical Industries) was used as a resin for the peptide synthesis when the linker was PEG. The peptide, to which a peptide, a fatty acid, PEG, or a conjugate thereof is added as a linker, was also synthesized according to Example 1, unless otherwise stated in Example 9 or 10.

[1] = SPR, hTfR No. 894 variants with PEG12c linker (Table 2), read-out: KD
[2] = surface plasmon resonance, hTfR, read-out: KD value for hTfR by SPR (class symbol)
[3] = SPR, hTfR, class symbols A-D, read-out: KD
[4] = surface plasmon resonance, peptide vs hTfR, read-out: KD value, hTfR binding by SPR (class symbol)

Structure (SMILES): CC[C@H](C)[C@@H]1NC(=O)[C@H](Cc2ccc(O)cc2)NC(=O)[C@H](Cc2ccc(O)cc2)NC(=O)[C@H](CC(N)=O)NC(=O)[C@H](CCc2ccccc2)NC(=O)[C@H](C(C)C)NC(=O)[C@H](Cc2ccccc2)N(C)C(=O)[C@H](C(C)C)NC(=O)[C@H](C)NC(=O)CSC[C@@H](C(=O)NCCOCCOCCOCCOCCOCCOCCOCCOCCOCCOCCOCCOCCC(N)=O)NC(=O)[C@H](Cc2ccc(O)cc2)N(C)C(=O)[C@H](Cc2ccc(O)cc2)NC(=O)[C@H](CCCNC(=N)N)NC(=O)[C@H](CCCNC(=N)N)NC(=O)[C@H]([C@@H](C)CC)NC1=O [compound 128]
Kd [1]: 1 to 100 nM

Structure (SMILES): CC[C@H](C)[C@@H]1NC(=O)[C@H](Cc2ccc(O)cc2)NC(=O)[C@H](Cc2ccc(O)cc2)NC(=O)[C@H](CC(N)=O)NC(=O)[C@H](Cc2cccc(OC)c2)NC(=O)[C@H](C(C)C)NC(=O)[C@H](Cc2ccccc2)N(C)C(=O)[C@H](C(C)C)NC(=O)[C@H](C)NC(=O)CSC[C@@H](C(=O)NCCOCCOCCOCCOCCOCCOCCOCCOCCOCCOCCOCCOCCC(N)=O)NC(=O)[C@H](Cc2ccc(O)cc2)N(C)C(=O)[C@H](Cc2ccc(O)cc2)NC(=O)[C@H](CCCNC(=N)N)NC(=O)[C@H](CCCNC(=N)N)NC(=O)[C@H]([C@@H](C)CC)NC1=O [compound 113] ({CH2CO}-AV[NMeF]V[Phe(3-OMe)]NYYIIRRY[NMeY]C[PEG12]-NH2; thioether N-15)
Kd [1]: < 1 nM

Structure (SMILES): CC[C@H](C)[C@@H]1NC(=O)[C@H](Cc2ccc(O)cc2)NC(=O)[C@H](Cc2ccc(O)cc2)NC(=O)[C@H](CC(N)=O)NC(=O)[C@H](Cc2c[nH]c3ccccc23)NC(=O)[C@H](C(C)C)NC(=O)[C@H](Cc2ccccc2)NC(=O)[C@H](C(C)C)NC(=O)[C@H](C)NC(=O)CSC[C@@H](C(=O)NCCOCCOCCOCCOCCC(=O)N[C@@H](CNC(=O)c2ccc(-c3c4ccc(=O)cc-4oc4cc(O)ccc34)c(C(=O)O)c2)C(N)=O)NC(=O)[C@H](Cc2ccc(O)cc2)N(C)C(=O)[C@H](Cc2ccc(O)cc2)NC(=O)[C@H](CCCNC(=N)N)NC(=O)[C@H](CCCNC(=N)N)N(C)C(=O)[C@H]([C@@H](C)CC)NC1=O [compound 164]
Kd (SPR, linker and payload (FITC, VivoTag) conjugates, read-out: KD): 1 to 100 nM

Structure (SMILES): CC[C@H](C)[C@@H]1NC(=O)[C@H](Cc2ccc(OC)cc2)NC(=O)[C@H](Cc2ccc(O)cc2)NC(=O)[C@H](CC(N)=O)NC(=O)[C@H](Cc2c[nH]c3ccccc23)N(C)C(=O)[C@H](C(C)C)NC(=O)[C@H](Cc2cccc(Cl)c2)N(C)C(=O)[C@H](C(C)C)NC(=O)[C@H](C)NC(=O)CSC[C@@H](C(=O)NCCOCCOCCOCCOCCC(N)=O)NC(=O)[C@H](Cc2ccc(O)cc2)N(C)C(=O)[C@H](Cc2ccccc2)NC(=O)[C@@H](CCCNC(=N)N)NC(=O)[C@H](CCCNC(=N)N)NC(=O)[C@H](CCCCCN)NC1=O [compound 339] ({CH2CO}-AV[NMePhe(3-Cl)]V[NMeW]NYY(Me)I[hLys]R[dR]F[NMeY]C[PEG4]-NH2; thioether N-15)
Kd [4]: 1 to 100 nM

Structure (SMILES): CC[C@H](C)[C@@H]1NC(=O)[C@H](Cc2ccc(O)cc2)NC(=O)[C@H](Cc2c[nH]c3ccccc23)NC(=O)[C@H](CC(N)=O)NC(=O)[C@H](Cc2c[nH]c3ccccc23)NC(=O)[C@H](C(C)C)NC(=O)[C@H](Cc2ccccc2)N(C)C(=O)[C@H](C(C)C)NC(=O)[C@H](C)NC(=O)CSC[C@@H](C(=O)NCCOCCOCCOCCOCCOCCOCCOCCOCCOCCOCCOCCOCCC(N)=O)NC(=O)[C@H](Cc2ccc(O)cc2)N(C)C(=O)[C@H](Cc2ccc(O)cc2)NC(=O)[C@H](CCCNC(=N)N)NC(=O)[C@H](CCCNC(=N)N)NC(=O)[C@H]([C@@H](C)CC)NC1=O [compound 125] ({CH2CO}-AV[NMeF]VWNWYIIRRY[NMeY]C[PEG12]-NH2; thioether N-15)
Kd [1]: 1 to 100 nM

Structure (SMILES): CC[C@H](C)[C@@H]1NC(=O)[C@H](Cc2ccc(OC)nc2)NC(=O)[C@H](Cc2ccc(O)cc2)NC(=O)[C@H](CC(N)=O)NC(=O)[C@H](Cc2c[nH]c3ccccc23)N(C)C(=O)[C@H](C(C)C)NC(=O)[C@H](Cc2cccc(Cl)c2)N(C)C(=O)[C@H](C(C)C)NC(=O)[C@H](C)NC(=O)CSC[C@@H](C(N)=O)NC(=O)[C@H](Cc2ccc(O)cc2)N(C)C(=O)[C@H](Cc2ccccc2)NC(=O)[C@@H](CCCNC(=N)N)NC(=O)C(C)(C)NC(=O)[C@H]([C@@H](C)CC)NC1=O [compound 323]
Kd [4]: 1 to 100 nM

Next, values leading:

Kd [2]: 1 to 100 nM
Structure (SMILES): CC[C@H](C)[C@@H]1NC(=O)[C@H](Cc2ccc(OC)cc2)NC(=O)[C@H](Cc2ccc(O)cc2)NC(=O)[C@H](CC(N)=O)NC(=O)[C@H](Cc2c[nH]c3ccccc23)N(C)C(=O)[C@H](C(C)C)NC(=O)[C@H](Cc2cccc(Cl)c2)N(C)C(=O)[C@H](C(C)C)NC(=O)[C@H](C)NC(=O)CSC[C@H](C(N)=O)NC(=O)[C@H](Cc2ccc(O)cc2)N(C)C(=O)[C@H](Cc2ccccc2)NC(=O)[C@@H](CCCNC(=N)N)NC(=O)[C@H](CCCNC(=N)N)NC(=O)[C@H]([C@@H](C)CC)NC1=O [compound 396]

Kd [3]: 100 to 1000 nM
Structure (SMILES): CC[C@H](C)[C@@H]1NC(=O)[C@H](Cc2ccc(OC)cc2)NC(=O)[C@H](Cc2ccc(O)cc2)NC(=O)[C@H](CC(N)=O)NC(=O)[C@H](Cc2c[nH]c3ccccc23)N(C)C(=O)[C@H](C(C)C)NC(=O)[C@H](Cc2cccc(C(=O)O)c2)N(C)C(=O)[C@H](C(C)C)NC(=O)[C@H](C)NC(=O)CSC[C@@H](C(N)=O)NC(=O)[C@H](Cc2ccc(O)cc2)N(C)C(=O)[C@H](Cc2ccccc2)NC(=O)[C@@H](CCCNC(=N)N)NC(=O)[C@H](CCCNC(=N)N)NC(=O)[C@H]([C@@H](C)CC)NC1=O [compound 452]

Kd [2]: 1 to 100 nM
Structure (SMILES): CC[C@H](C)[C@@H]1NC(=O)[C@H](Cc2ccc(OC)cc2)NC(=O)[C@H](Cc2ccc(O)cc2)NC(=O)[C@H](CC(N)=O)NC(=O)[C@H](Cc2c[nH]c3ccccc23)N(C)C(=O)[C@H](C(C)C)NC(=O)[C@H](Cc2cccc(Cl)c2)N(C)C(=O)[C@H](C(C)C)NC(=O)[C@H](C)NC(=O)CSC[C@@H](C(N)=O)NC(=O)[C@H](Cc2ccc(O)cc2)N(C)C(=O)[C@H](Cc2ccc(Cl)cc2)NC(=O)[C@@H](CCCNC(=N)N)NC(=O)[C@H](CCCNC(=N)N)NC(=O)[C@H]([C@@H](C)CC)NC1=O [compound 392]

Kd [4]: 1 to 100 nM
Structure (SMILES): CC[C@H](C)[C@@H]1NC(=O)[C@H](Cc2ccc(OC)cc2)NC(=O)[C@H](Cc2ccc(O)cc2)NC(=O)[C@H](CC(N)=O)NC(=O)[C@H](Cc2c[nH]c3ccccc23)N(C)C(=O)[C@H](C(C)C)NC(=O)[C@H](Cc2cccc(Cl)c2)N(C)C(=O)[C@H](C(C)C)NC(=O)[C@H](C)NC(=O)CSC[C@@H](C(=O)NCC(=O)NCC(=O)NCC(=O)NCC(=O)N[C@@H](CO)C(=O)N[C@@H](CO)C(=O)N[C@@H](CS)C(N)=O)NC(=O)[C@H](Cc2ccc(O)cc2)N(C)C(=O)[C@H](Cc2ccccc2)NC(=O)[C@@H](CCCNC(=N)N)NC(=O)[C@H](CCCNC(=N)N)NC(=O)[C@H](CCC(=O)O)NC1=O [compound 342]

Kd [3]: 1 to 100 nM
Structure (SMILES): CC[C@H](C)[C@@H]1NC(=O)[C@H](Cc2cccc(C(=O)O)c2)NC(=O)[C@H](Cc2ccc(O)cc2)NC(=O)[C@H](CC(N)=O)NC(=O)[C@H](Cc2c[nH]c3ccccc23)N(C)C(=O)[C@H](C(C)C)NC(=O)[C@H](Cc2cccc(Cl)c2)N(C)C(=O)[C@H](C(C)C)NC(=O)[C@H](C)NC(=O)CSC[C@@H](C(N)=O)NC(=O)[C@H](Cc2ccc(O)cc2)N(C)C(=O)[C@H](Cc2ccccc2)NC(=O)[C@@H](CCCNC(=N)N)NC(=O)[C@H](CCCNC(=N)N)NC(=O)[C@H]([C@@H](C)CC)NC1=O [compound 458] ({CH2CO}-AV[NMePhe(3-Cl)]V[NMeW]NY[Phe(3-COOH)]IIR[dR]F[NMeY]C-NH2; thioether N-15)
